{
  "source": "patent US4069016A",
  "about": "“Assay for bilirubin” (priority 1977, dated 1978)",
  "key": {"Human Serum Albumin [1]": {"tested_on": "Human Serum Albumin", "conditions": "cited from earlier work"}, "HSA [2]": {"molecular_target": "T1, HSA (Homo sapiens, UniProt P02768)", "T1 construct": "purchased Pentex, Miles Laboratories, Inc", "T1 sequence (P02768 25-609)": "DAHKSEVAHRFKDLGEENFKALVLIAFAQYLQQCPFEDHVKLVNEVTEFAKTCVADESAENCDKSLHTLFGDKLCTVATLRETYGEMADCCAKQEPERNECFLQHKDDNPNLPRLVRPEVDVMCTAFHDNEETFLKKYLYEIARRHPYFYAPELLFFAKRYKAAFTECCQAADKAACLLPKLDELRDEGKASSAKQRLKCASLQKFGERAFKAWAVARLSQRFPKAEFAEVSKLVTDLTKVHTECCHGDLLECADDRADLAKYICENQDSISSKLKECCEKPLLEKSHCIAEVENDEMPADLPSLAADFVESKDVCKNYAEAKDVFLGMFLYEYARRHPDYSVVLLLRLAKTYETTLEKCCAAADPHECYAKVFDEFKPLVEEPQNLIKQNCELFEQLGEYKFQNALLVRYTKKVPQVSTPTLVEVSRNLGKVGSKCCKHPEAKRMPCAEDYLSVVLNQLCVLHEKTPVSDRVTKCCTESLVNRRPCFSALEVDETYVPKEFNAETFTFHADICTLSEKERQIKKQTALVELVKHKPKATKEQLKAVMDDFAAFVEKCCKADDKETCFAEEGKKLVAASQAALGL", "test": "Bromophenol blue-HSA binding and competitive displacement by bilirubin, ultrafiltration, 590 nm", "text": "In this Example, a solution assay for bilirubin in accord with the method of the present invention is illustrated. […] Using an Amicon Ultraflo Membrane Cone CF-25 (having a molecular weight cutoff of 25,000 daltons) in an ultrafiltration technique as described by U. Kragh-Hansen et. al., Biochim. et Biophys."}, "HSA [3]": {"molecular_target": "T1, HSA", "test": "ANS-HSA complex solution assay, fluorescence (ANS binding and displacement by bilirubin)", "procedure": "Where the detectable ligand used in the following Examples was a fluorescent probe, arbitrary fluorescence, F, was recorded both immediately before and after addition of bilirubin (B) to the complex. The difference in these F values (i.e. ΔF) was then expressed as a percentage value by arbitrarily designating the F value for the complex at 100 prior to addition of any bilirubin analyte to the complex (i.e. at zero B concentration). A series of Δ F values were then plotted for a given complex having a constant D/P ratio against a series of liquid test samples containing varying B concentrations. As a result, one obtained a calibration curve for that complex. A liquid test sample containing an unknown amount of B, could then be evaluated by the Δ F value for that sample using the calibrated complex and then locating this Δ F value on the previously prepared calibration curve for the complex.\nIn this Example, fluorescence of the ANS-albumin complex was obtained by exciting the complex at an excitation maximum of 386 nanometers. […] As is known, the fluorescent probe ANS is highly fluorescent when associated with albumin, but is non-fluorescent when free in solution.\nThe fluorescence of each of these individual test solutions was monitored as bilirubin-containing test samples were admixed into these individual solutions. […]"}, "Human Serum Albumin [4]": {"molecular_target": "Human Serum Albumin", "conditions": "cited from earlier work; for first order binding constant KA to human serum albumin: Kragh-Hansen et al. 1974"}, "[5]": {"conditions": "435 nanometers; cited from earlier work"}, "[6]": {"test": "Molar absorptivity / extinction coefficient", "type": "physicochemical", "conditions": "at or near 590 nanometers", "text": "Among others, there are various direct spectrophotometric assay techniques for bilirubin which take advantage of the molar absorbtivity inherent in bilirubin. That is, bilirubin is a yellow pigment having a molar absorbtivity of about 5 × 10^4 as measured at 435 nanometers. However, although the molar absorbtivity of bilirubin is high enough to be useful in various direct spectrophotometric solution assay techniques, it is not sufficiently high to produce a quantitative assay for bilirubin using \"dry chemistry\" analytical test elements. Thus, present-day direct spectrophotometric assay techniques for bilirubin are generally limited to solution assay techniques, particularly if accurate, quantitative results are desired. […] In addition, other materials present in bilirubin-containing biological fluids such as human serum can also cause spectral interferences using such direct spectrophotometric assay methods.\nIn this Example, a solution assay for bilirubin in accord with the method of the present invention is illustrated. The assay of the present Example is similar to that described in Examples 1 and 2 above, except that the present Example illustrates the use of a colorimetric, rather than a fluorometric, assay using bromophenol blue indicator dye as the detectable ligand in the bilirubin-active complex. […]"}},
  "note": "Where two headings read alike, the source gives them in different places.",
  "data": [
    {"molecule": "C[C@]12CCC(=O)C=C1CC[C@@H]1[C@@H]2[C@@H](O)C[C@]2(C=O)[C@@H](C(=O)CO)CC[C@@H]12", "note": "[Aldosterone]", "values": [
      {"measurement": "Binding Constant of primary or high affinity site(s) KA", "setting": "Human Serum Albumin [1]; pH 7.4, 5° C", "value": "< 5000", "unit": "M⁻¹"}
    ]},
    {"molecule": "C=CC1=C(C)/C(=C/c2[nH]c(Cc3[nH]c(/C=C4\\NC(=O)C(C)=C4C=C)c(C)c3CCC(=O)O)c(CCC(=O)O)c2C)NC1=O", "note": "[Bilirubin]", "values": [
      {"measurement": "inhibition at 0.244 µg/mL", "setting": "HSA [2]; pH 7.4, read-out: decrease in bromophenol blue binding to HSA, standard test solution about 0.0244 mg bilirubin per deciliter added", "value": "~33", "unit": "%"},
      {"measurement": "amount of bromophenol blue competitively displaced from the albumin carrier", "setting": "HSA [2]; standard test solution approximately 10 mg bilirubin per deciliter, compared with 0.0244 mg/dl", "value": "substantially higher amount"},
      {"measurement": "reduction in fluorescence of ANS/HSA complexes (displacement of ANS)", "setting": "HSA [3]; 0.066 mg/dl bilirubin added, pH 7.4", "value": "drastic reduction in fluorescence"},
      {"measurement": "extent of displacement of ANS from albumin (change in fluorescence) versus bilirubin", "setting": "HSA [3]; 25 micromoles/l ANS, 15 micromoles/l HSA, bilirubin 0.03-0.33 mg/dl", "value": "quasi-linearly related to the amount of bilirubin added"},
      {"measurement": "Binding Constant of primary or high affinity site(s) KA", "setting": "Human Serum Albumin [1]; pH 7.4, 25° C", "value": "2.4e+08", "unit": "M⁻¹"},
      {"measurement": "Binding Constant of primary or high affinity site(s) KA", "setting": "Human Serum Albumin [1]; pH 7.4, 37° C", "value": "1.4e+08", "unit": "M⁻¹"},
      {"measurement": "first order binding constant KA to human serum albumin", "setting": "Human Serum Albumin [4]", "value": "greater than 10^8 M^-1"},
      {"measurement": "Kd", "setting": "Human Serum Albumin [4]; example given for comparison in Example 3, read-out: binding constant to albumin", "value": "~10", "unit": "nM"},
      {"measurement": "molar absorbtivity", "setting": "[5]", "value": "about 5 × 10^4"}
    ]},
    {"molecule": "O=C1NC(=O)C(c2ccccc2)(c2ccccc2)N1", "note": "[Dipheylhydantoin, reference compound]", "values": [
      {"measurement": "Binding Constant of primary or high affinity site(s) KA", "setting": "Human Serum Albumin [1]; pH not given (--), 37° C", "value": 6000, "unit": "M⁻¹"}
    ]},
    {"molecule": "C[C@]12CC[C@@H]3c4ccc(O)cc4CC[C@H]3[C@@H]1CC[C@@H]2O", "note": "[Estradiol]", "values": [
      {"measurement": "Binding Constant of primary or high affinity site(s) KA", "setting": "Human Serum Albumin [1]; pH 7.4, 5° C", "value": 100000, "unit": "M⁻¹"}
    ]},
    {"molecule": "N[C@@H](Cc1cc(I)c(Oc2cc(I)c(O)c(I)c2)c(I)c1)C(=O)O", "note": "[L-thyroxine]", "values": [
      {"measurement": "Binding Constant of primary or high affinity site(s) KA", "setting": "Human Serum Albumin [1]; pH 7.4, 24° C", "value": "10^6 M^-1"}
    ]},
    {"molecule": "N[C@@H](Cc1c[nH]c2ccccc12)C(=O)O", "note": "[L-tryptophan]", "values": [
      {"measurement": "Binding Constant of primary or high affinity site(s) KA", "setting": "Human Serum Albumin [1]; pH 7.4, 2° C", "value": 16000, "unit": "M⁻¹"}
    ]},
    {"molecule": "CC(=O)[C@H]1CC[C@H]2[C@@H]3CCC4=CC(=O)CC[C@]4(C)[C@H]3CC[C@]12C", "note": "[Progesterone]", "values": [
      {"measurement": "Binding Constant of primary or high affinity site(s) KA", "setting": "Human Serum Albumin [1]; pH 7.4, 5° C", "value": 37000, "unit": "M⁻¹"}
    ]},
    {"molecule": "O=C(O)c1ccccc1", "note": "[Sodium benzoate]", "values": [
      {"measurement": "Binding Constant of primary or high affinity site(s) KA", "setting": "Human Serum Albumin [1]; pH 7.4, 37° C", "value": 1700, "unit": "M⁻¹"}
    ]},
    {"molecule": "Nc1ccc(S(=O)(=O)Nc2ncccn2)cc1", "note": "[Sulfadiazine, reference compound]", "values": [
      {"measurement": "Binding Constant of primary or high affinity site(s) KA", "setting": "Human Serum Albumin [1]; pH 7.4, 37° C", "value": 820, "unit": "M⁻¹"}
    ]},
    {"molecule": "Cc1noc(NS(=O)(=O)c2ccc(N)cc2)c1C", "note": "[Sulfisoxazole, reference compound]", "values": [
      {"measurement": "Binding Constant of primary or high affinity site(s) KA", "setting": "Human Serum Albumin [1]; pH 7.4, 37° C", "value": 19000, "unit": "M⁻¹"}
    ]},
    {"molecule": "C[C@]12CC[C@H]3[C@@H](CCC4=CC(=O)CC[C@@]43C)[C@@H]1CC[C@@H]2O", "note": "[Testosterone]", "values": [
      {"measurement": "Binding Constant of primary or high affinity site(s) KA", "setting": "Human Serum Albumin [1]; pH 7.4, 25° C", "value": 42000, "unit": "M⁻¹"}
    ]},
    {"molecule": "O=c1[nH]c(=O)c2[nH]c(=O)[nH]c2[nH]1", "note": "[Urate]", "values": [
      {"measurement": "Binding Constant of primary or high affinity site(s) KA", "setting": "Human Serum Albumin [1]; pH 7.4, 37° C", "value": 300, "unit": "M⁻¹"}
    ]},
    {"molecule": "O=S1(=O)OC(c2cc(Br)c(O)c(Br)c2)(c2cc(Br)c(O)c(Br)c2)c2ccccc21", "note": "[bromophenol blue, reference compound]", "values": [
      {"measurement": "Kd", "setting": "HSA [2]", "value": 500, "unit": "nM"},
      {"measurement": "approximate maximum molar binding ratio of bromophenol blue to HSA", "setting": "HSA [2]; 0.05 M sodium phosphate pH 7.4", "value": "about 3.4"},
      {"measurement": "extinction coefficient", "setting": "[6]", "value": "approximately 78,000"}
    ]},
    {"molecule": "CCCCCCCCCCCCCCCC(=O)O", "note": "[palmitate]", "values": [
      {"measurement": "Binding Constant of primary or high affinity site(s) KA", "setting": "Human Serum Albumin [1]; pH 7.4, 23° C", "value": "10^6 M^-1"}
    ]},
    {"molecule": "O=S1(=O)OC(c2ccc(O)cc2)(c2ccc(O)cc2)c2ccccc21", "note": "[phenol red, reference compound]", "values": [
      {"measurement": "first order binding constant KA to human serum albumin", "setting": "Human Serum Albumin [4]", "value": "about 10^4 M^-1"}
    ]},
    {"molecule": "Gentamicin sulfate [reference compound]", "values": [
      {"measurement": "Binding Constant of primary or high affinity site(s) KA", "setting": "Human Serum Albumin [1]; pH 7.4, 37° C", "value": "< 10", "unit": "M⁻¹"}
    ]},
    {"molecule": "Polymyzin B sulfate [reference compound]", "values": [
      {"measurement": "Binding Constant of primary or high affinity site(s) KA", "setting": "Human Serum Albumin [1]; pH 7.4, 37° C", "value": "< 100", "unit": "M⁻¹"}
    ]}
  ]
}
